# Laboratory results reported in PubChem BioAssay (NCI).
#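 Growth conditions: 96-well plates. Treatment: test compound, 48 hours, 5 concentrations. Analysis: linear interpolation between bracketing concentrations; unreached endpoints set to highest concentration. Abbreviation: GI50, concentration required for 50% inhibition of growth. TGI denotes the concentration required for complete inhibition of growth.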
# What was measured:
# Assay in all cases: NCI-60 cell line screen, 48 h
# CCRF-CEM leukemia = system: CCRF-CEM leukemia
# IGROV1 ovarian = system: IGROV1 ovarian
# OVCAR-3 ovarian = system: OVCAR-3 ovarian
# OVCAR-8 ovarian = system: OVCAR-8 ovarian
# SN12C renal = system: SN12C renal
# SNB-19 CNS = system: SNB-19 CNS
# SW-620 colon = system: SW-620 colon
# TK-10 renal = system: TK-10 renal
# NCI-H226 lung = system: NCI-H226 lung
# NCI-H522 lung = system: NCI-H522 lung
Compound,TGI (CCRF-CEM leukemia) [µM],TGI (IGROV1 ovarian) [µM],TGI (OVCAR-3 ovarian) [µM],TGI (OVCAR-8 ovarian) [µM],TGI (SN12C renal) [µM],TGI (SNB-19 CNS) [µM],TGI (SW-620 colon) [µM],TGI (TK-10 renal) [µM],TGI (NCI-H226 lung) [µM],TGI (NCI-H522 lung) [µM],GI50 (IGROV1 ovarian) [µM],GI50 (NCI-H226 lung) [µM],GI50 (NCI-H522 lung) [µM],GI50 (OVCAR-3 ovarian) [µM],GI50 (OVCAR-8 ovarian) [µM],GI50 (SN12C renal) [µM],GI50 (SNB-19 CNS) [µM],GI50 (SW-620 colon) [µM],GI50 (TK-10 renal) [µM],GI50 (CCRF-CEM leukemia) [µM]
CC1C=CC(=O)C(n2cc(F)c(=O)[nH]c2=O)O1 (stereo unspecified),34.4,45.2,31.2,65.4,38.4,53.6,36.7,34.4,,,,,,,,,,,,
CCCCCCCC/C=C\CCCCCCCC(=O)NCCN(CCN)C(=O)CCCCCCC/C=C\CCCCCCCC,> 100,> 100,> 100,> 100,> 100,> 100,> 100,> 100,> 100,,,,,,,,,,,
CC(C)=CC(=O)Cc1nc2cc(C)c(C)cc2[nH]c1=O,> 100,> 100,> 100,,> 100,> 100,> 100,> 100,> 100,,,,,,,,,,,
O=C(Nc1nc2ncn(CC(COc3ccccc3)OC(=O)c3ccccc3)c2c(=O)[nH]1)c1ccccc1 (stereo unspecified),,> 100,> 100,> 100,> 100,> 100,> 100,,> 100,> 100,,,,,,,,,,
CC1OC(OCC2COC(O)(Oc3c(-c4ccc(O)c(O)c4)oc4cc(O)cc(O)c4c3=O)C(O)C2O)C(O)C(O)C1O (stereo unspecified),> 100,> 100,> 100,> 100,> 100,> 100,> 100,> 100,> 100,,,,,,,,,,,
CC1=C(C(=O)NCc2ccccc2)C(c2ccccc2[N+](=O)[O-])C(C(=O)NCc2ccccc2)=C(C)N1,44.7,40.9,19.2,43.3,27.4,27.5,28.1,31.4,30.4,,,,,,,,,,,
COc1ccc(/C=C/c2n[nH]c3ccc(N4CCOC4=O)cc23)cc1,,> 100,9.42,> 100,> 100,> 100,10.8,26.2,15.4,14.5,2.53,2.44,1.87,2.97,2.31,2.14,3.12,1.64,3.12,
Nc1c(C(=O)Nc2ccccc2Cl)sc2nc3c(cc12)CCCCCC3,,,12.7,30.5,> 100,20.5,> 100,6.22,24.5,91.1,,3.76,13.6,3.23,4.11,9.11,2.93,3.14,2.4,
Nc1ccn(C2CC(CO)C(O)C2O)c(=O)n1 (stereo unspecified),,> 57.7,> 57.7,> 57.7,> 57.7,> 57.7,> 57.7,> 57.7,> 57.7,> 57.7,,,,,,,,,,
Cc1ccccc1CN1CC=c2ccccc2=N1,> 100,> 100,> 100,> 100,> 100,> 100,> 100,> 100,> 100,,,,,,,,,,,
NC(=S)N/N=C1/C(=O)N(c2ccc(Cl)cc2Cl)C(=O)C(=O)C1c1nc2ccccc2s1 (stereo unspecified),,> 100,> 100,> 100,> 100,> 100,> 100,> 100,> 100,> 100,,,,,,,,,,
OCC12C3C4C1C1C2C3C41CO (stereo unspecified),> 100,> 100,> 100,> 100,> 100,> 100,> 100,> 100,> 100,,,,,,,,,,,
COc1ccc(C2=NN(C(C)=O)C(c3cn(-c4ccccc4)nc3-c3ccc(Cl)cc3)C2)cc1 (stereo unspecified),> 100,> 100,> 100,,> 100,,> 100,,> 100,,> 100,> 100,,> 100,,> 100,,,,> 100
O=c1cnn2c(n1)sc1ccc3ccccc3c12,> 100,> 100,> 100,> 100,> 100,> 100,> 100,> 100,> 100,,,,,,,,,,,
O=c1c2ccccc2c2nc3ccccc3nc2n1C1CCCCC1,,> 100,> 100,> 100,> 100,> 100,> 100,> 100,> 100,> 100,,,,,,,,,,
Cc1cc(Cl)ccc1N=C1NC(=O)C(CC(=O)Nc2ccc(Cl)cc2Cl)S1 (stereo unspecified),> 100,> 100,> 100,> 100,> 100,> 100,> 100,> 100,,,,,,,,,,,,
Cc1ccc(C)c(NC(=O)CC/C(=N\NC(=O)C(N)=O)C(C)C(=O)c2ccc(O)cc2)c1 (stereo unspecified),> 100,> 100,> 100,> 100,> 100,> 100,> 100,,> 100,,,,,,,,,,,
